Test [1] in a line: Disruption of mitochondrial membrane potential in mouse B16F10 cells assessed as rhodamine123 negative cells at cytotoxic IC50 after 72 hrs by propidium iodide staining based fluorescence spectroscopic analysis (reference value: 4.45 +/- 0.64%). The class given is functional, B16-F10.
A short description of test [2]: Induction of apoptosis in mouse B16F10 cells assessed as live cells at cytotoxic IC50 after 72 hrs by Annexin V-FITC/propidium iodide staining based flow cytometry (reference value: 97.55 +/- 0.5%). The class given is functional, B16-F10.
Test [3] has as its system B16-F10. As to the kind of experiment: Induction of apoptosis in mouse B16F10 cells assessed as disruption of cell membrane integrity at cytotoxic IC50 after 72 hrs by Hoechst staining based fluorescence microscopic analysis. In kind it is functional.
The test system of test [4] is B16-F10. As to the kind of experiment: Potency index, ratio of maslinic acid IC50 to compound IC50 for mouse B16F10 cells. The class given is functional.
In test [5] the test system is HT-29. As to the kind of experiment: Induction of apoptosis in human HT-29 cells assessed as spherical cell shape at cytotoxic IC50 after 72 hrs by Hoechst staining based fluorescence microscopic analysis. The class given is functional.
Test [6] deals with HT-29. As to the kind of experiment: Induction of apoptosis in human HT-29 cells assessed as live cells at cytotoxic IC50 after 72 hrs by Annexin V-FITC/propidium iodide staining based flow cytometry (reference value: 96.65 +/- 0.78%). The class given is functional.
The test system of test [7] is HT-29. As to the kind of experiment: Cell cycle arrest in human HT-29 cells assessed as accumulation at S phase at cytotoxic IC50 after 72 hrs by propidium iodide staining based flow cytometry (reference value: 48.31 +/- 1.49%). In kind it is functional.
A short description of test [8]: Cell cycle arrest in mouse B16F10 cells assessed as accumulation at S phase at cytotoxic IC50 after 72 hrs by propidium iodide staining based flow cytometry (reference value: 48.31 +/- 0.74%). In kind it is functional, B16-F10.
The subject of test [9] is HT-29. As to the kind of experiment: Induction of apoptosis in human HT-29 cells assessed as necrotic cells at cytotoxic IC50 after 72 hrs by Annexin V-FITC/propidium iodide staining based flow cytometry (reference value: 1.05 +/- 0.35%). In kind it is functional.
In test [10] the test system is HT-29. As to the kind of experiment: Cell cycle arrest in human HT-29 cells assessed as accumulation at G0/G1 phase at cytotoxic IC50 after 72 hrs by propidium iodide staining based flow cytometry (reference value: 55.18 +/- 0.22%). In kind it is functional.
The test system of test [11] is HepG2. As to the kind of experiment: Induction of apoptosis in human HepG2 cells assessed as necrotic cells at cytotoxic IC50 after 72 hrs by Annexin V-FITC/propidium iodide staining based flow cytometry (reference value: 0.1 +/- 0.01%). In kind it is functional.
Test [12] is described as follows: Induction of apoptosis in mouse B16F10 cells assessed as late apoptotic cells at cytotoxic IC50 after 72 hrs by Annexin V-FITC/propidium iodide staining based flow cytometry (reference value: 0.75 +/- 0.21%). In kind it is functional, B16-F10.
For test [13], the system named is HepG2. As to the kind of experiment: Cell cycle arrest in human HepG2 cells assessed as accumulation at G0/G1 phase at cytotoxic IC50 after 72 hrs by propidium iodide staining based flow cytometry (reference value: 39.41 +/- 1.56%). The class given is functional.
A short description of test [14]: Cytotoxicity against mouse B16F10 cells assessed as growth inhibition after 72 hrs by MTT assay. The class given is functional, cell-based. The settings on record: B16-F10, 72 h.
The subject of test [15] is HT-29. As to the kind of experiment: Cytotoxicity against human HT-29 cells assessed as growth inhibition after 72 hrs by MTT assay. The class given is functional, cell-based. The settings on record: HT-29, 72 h.
Test [16] has as its system HT-29. As to the kind of experiment: Induction of apoptosis in human HT-29 cells assessed as cell shrinkage at cytotoxic IC50 after 72 hrs by Hoechst staining based fluorescence microscopic analysis. In kind it is functional.
For test [17], the system named is HT-29. As to the kind of experiment: Induction of apoptosis in human HT-29 cells assessed as bubble shaped region in cell surface at cytotoxic IC50 after 72 hrs by Hoechst staining based fluorescence microscopic analysis. In kind it is functional.
In test [18] the test system is B16-F10. As to the kind of experiment: Induction of apoptosis in mouse B16F10 cells assessed as loss of nuclear architecture at cytotoxic IC50 after 72 hrs by Hoechst staining based fluorescence microscopic analysis. The class given is functional, cell-based.
Test [19] has as its system HT-29. As to the kind of experiment: Induction of apoptosis in human HT-29 cells assessed as loss of nuclear architecture at cytotoxic IC50 after 72 hrs by Hoechst staining based fluorescence microscopic analysis. The class given is functional, cell-based.

Active and inactive are the calls of the source. No cut-off for these calls is given here.

On to `CC1(C)CC[C@]2(C(=O)NCCCOCCOCCOCCCN)CC[C@]3(C)C(=CC[C@@H]4[C@@]5(C)C[C@@H](O)[C@H](O)C(C)(C)[C@@H]5CC[C@]43C)[C@@H]2C1`, for which the Activity in test [1] came to 51.95%; in test [2], 0.9%; in the test on HT-29 [6], 61%; with HT-29 [7], 7.12%; in test [8] it was 22.44%; in the test with HT-29 [9], 0.2%. In addition, the Activity is on record as 79.78% with HT-29 [10], 0.4% with HepG2 [11], 38.65% in test [12] and 40.22% in the test on HepG2 [13]. The outcome in the test with B16-F10 [3], in the test on HT-29 [5], in the test with HT-29 [16], in the test with HT-29 [17], with B16-F10 [18] and in the test with HT-29 [19] was Active. Besides, the “Ratio IC50” value in the test on B16-F10 [4] is 3.2. The results for the IC50 (in test [14]; in the test on HT-29 [15]) were 11.4 µM and 11.8 µM, respectively.
For the molecule `COCCOCCOCC(=O)O[C@@H]1C[C@]2(C)[C@H]3CC=C4[C@@H]5CC(C)(C)CC[C@]5(C(=O)O)CC[C@@]4(C)[C@]3(C)CC[C@H]2C(C)(C)[C@H]1OC(=O)COCCOCCOC`, the Activity in test [1] worked out at 24.9%; in test [2], 11.1%; with HT-29 [6] it was 59.75%; in the test with HT-29 [7], 4.97%; in test [8], 12.07%; in the test with HT-29 [9], 0%. Further, the Activity in the test on HT-29 [10] amounted to 94.28%; in the test on HepG2 [11] it was 0.4%; in test [12], 56.05%; in the test with HepG2 [13], 58.19%. The outcome in the test on B16-F10 [3], in the test on HT-29 [5], with HT-29 [16], in the test on HT-29 [17], with B16-F10 [18] and with HT-29 [19] was Active. Moreover, the “Ratio IC50” value with B16-F10 [4] came out at 0.7. Besides, the results for the IC50 (in [14]; in the test with HT-29 [15]) were 48.4 µM and 39.7 µM, respectively.

The values are drawn from ChEMBL document CHEMBL3822440, “Semi-synthesis and antiproliferative evaluation of PEGylated pentacyclic triterpenes” (Eur J Med Chem, 2016).
